Data reported in ChEMBL document CHEMBL5303304, “EUbOPEN Chemogenomics Library - IncuCyte” (2023).
Where “and” joins values, the source holds several entries; their conditions need not be identical. Equal values may be shown once.

What was measured:
Assay type in all cases: toxicity, cell-based
Fibroblast = assay: Incucyte cell viability with human fibroblast; conditions: 10 µM, compound concentration 10 uM
U2OS = assay: Incucyte cell viability with U2OS; conditions: human, 10 µM, compound concentration 10 uM
HEK-293T = assay: Incucyte cell viability with HEK293T; conditions: human, 10 µM, compound concentration 10 uM
Note: unitless GR value; below 1 slowed growth and below 0 cell loss.

SMILES	Growth Rate (U2OS; 0 h, replicate number 1)	Growth Rate (U2OS; 0 h, replicate number 2)	Growth Rate (U2OS; 6 h, replicate number 1)	Growth Rate (U2OS; 6 h, replicate number 2)	Growth Rate (U2OS; 12 h, replicate number 1)	Growth Rate (U2OS; 12 h, replicate number 2)	Growth Rate (U2OS; 18 h, replicate number 1)	Growth Rate (U2OS; 18 h, replicate number 2)	Growth Rate (U2OS; 24 h, replicate number 1)	Growth Rate (U2OS; 24 h, replicate number 2)	Growth Rate (HEK-293T; 0 h, replicate number 1)	Growth Rate (HEK-293T; 6 h, replicate number 2)	Growth Rate (HEK-293T; 12 h, replicate number 2)	Growth Rate (Fibroblast; 12 h, replicate number 1)	Growth Rate (Fibroblast; 24 h, replicate number 1)	Growth Rate (HEK-293T; 6 h, replicate number 1)	Growth Rate (HEK-293T; 18 h, replicate number 1)	Growth Rate (HEK-293T; 24 h, replicate number 1)	Growth Rate (HEK-293T; 24 h, replicate number 2)	Growth Rate (Fibroblast; 18 h, replicate number 1)	also measured
Fc1ccc(Cl)cc1-c1nc(Nc2ccncc2)c2nccnc2n1	-0.59	0.75	0.78	0.55	0.86	0.77	0.67	0.87	0.95	0.75	-0.93	0.79	0.91								Growth Rate (Fibroblast; 0 h, replicate number 2): -0.5
COc1ccc2c(O[C@@H]3C[C@H]4C(=O)N[C@]5(C(=O)O)CC5/C=C\CCCCC[C@H](NC(=O)OC5CCCC5)C(=O)N4C3)cc(-c3csc(NC(=O)C(C)C)n3)nc2c1C (stereo not given in full) [BI 1230]	0.55		0.71 and 0.63	0.86		0.86	0.65 and 0.86	0.98	0.77 and 0.99	0.95				0.15 and 0.2	0.07 and 0.17	0.86 and 0.76	0.86 and 0.65	0.7	0.34 and 0.67		Growth Rate (Fibroblast; 0 h, replicate number 2): 0.45; Growth Rate (Fibroblast; 12 h, replicate number 2): -0.04 and -0.05; Growth Rate (HEK-293T; 12 h, replicate number 1): 0.92 and 0.77
CC(=O)c1c(C)c2cnc(Nc3ccn(C)n3)nc2n(C2CCCC2)c1=O			0.67	0.96	0.06	0.99		0.92			0.51	0.76	0.81			0.81	0.9	0.79	0.83	0.8	Growth Rate (Fibroblast; 6 h, replicate number 2): 0.93; Growth Rate (HEK-293T; 12 h, replicate number 1): 0.97; Growth Rate (HEK-293T; 18 h, replicate number 2): 0.79
NCCCNCCCCNCCC(=O)NCCCCCNC(=O)[C@H](CC(N)=O)NC(=O)Cc1ccc(O)cc1O [JORO SPIDER TOXIN 3]		-0.97									-0.96				0.49					0.85	Growth Rate (Fibroblast; 0 h, replicate number 1): 0.16; Growth Rate (Fibroblast; 0 h, replicate number 2): -1; Growth Rate (HEK-293T; 0 h, replicate number 2): -1
Cc1c(-c2c(F)cc(C(N)=O)c3[nH]c4c(c23)CC[C@H](C(C)(C)O)C4)cccc1-n1c(=O)c2cccc(F)c2n(C)c1=O [BMS-986142]	0.59	0.95	0.26	0.48	0.52	0.67	0.59	0.66	0.49	0.73		-0.99	-0.83	0.08	0.8	-0.93	-0.43	-0.25	-0.39	0.54	Growth Rate (Fibroblast; 0 h, replicate number 1): -1; Growth Rate (Fibroblast; 6 h, replicate number 1): -0.27; Growth Rate (Fibroblast; 6 h, replicate number 2): -0.9; Growth Rate (Fibroblast; 12 h, replicate number 2): 0.19; Growth Rate (Fibroblast; 18 h, replicate number 2): 0.73; Growth Rate (Fibroblast; 24 h, replicate number 2): 1; Growth Rate (HEK-293T; 12 h, replicate number 1): -0.7; Growth Rate (HEK-293T; 18 h, replicate number 2): -0.59
COc1cc(-c2cn(C)c(=O)c3cnccc23)c(OC)cc1CN(C)C	0.29		0.38		0.8				0.97		0.44	0.24	0.4	0.84	0.8		0.77	0.68	0.77	0.8	Growth Rate (Fibroblast; 6 h, replicate number 1): 0.79; Growth Rate (Fibroblast; 6 h, replicate number 2): 0.69; Growth Rate (Fibroblast; 12 h, replicate number 2): 0.23; Growth Rate (Fibroblast; 18 h, replicate number 2): 0.53; Growth Rate (Fibroblast; 24 h, replicate number 2): 0.5; Growth Rate (HEK-293T; 18 h, replicate number 2): 0.68
Nc1nccc(-c2ccn3c(N)nccc23)n1		-0.76			0.76		0.84				-0.56			-0.17				0.97		0.49	Growth Rate (Fibroblast; 0 h, replicate number 1): 0.88; Growth Rate (Fibroblast; 6 h, replicate number 1): 0.9; Growth Rate (HEK-293T; 0 h, replicate number 2): -0.48
O=C1NCCSc2c1sc1ccc(O)cc21	0	-0.99			0.56	0.36	0.33	0.31	0.37	0.18	0.04	-0.51	-0.26	-1		-0.48	-0.14	0.15	0.12		Growth Rate (Fibroblast; 6 h, replicate number 1): -0.69; Growth Rate (HEK-293T; 0 h, replicate number 2): -0.36; Growth Rate (HEK-293T; 12 h, replicate number 1): -0.4; Growth Rate (HEK-293T; 18 h, replicate number 2): -0.06
